Test [1] deals with SKBR3 (PI3Kα-Wild Type) cell line. The experiment in a line: HTRF phospho-AKT(S473) cell assay in SKBR3 cells. It is filed as cell-based, human. In a few lines:
(§1)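 T47D: RPMI + 10% FBS + 0.2 units/mL insulin, top 5 μM. SKBR3: McCoy's 5A + 10% FBS, top 10 μM, 70 ng/ml PDGF-BB last 15 min. Both: 12-pt 1:3, 2 h, 37° C, max 0.5% DMSO; HTRF pAKT(S473); IC50.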
In general terms: TR-FRET usually uses a lanthanide donor and a delayed reading to cut background.

Test [2] has as its system T47D (PI3Kα-H1047R) cell line. The experiment in a line: HTRF phospho-AKT(S473) cell assay in T47D cells. The format is cell-based, human. In a few lines:
as §1

Where [3] appears, read: Homo sapiens, SK-BR-3; HTRF phospho-AKT(S473), SKBR3 (PI3Kα-Wild Type) cells, 2 hours compound incubation, PDGF-BB stimulated.
Where [4] appears, read: Homo sapiens; HTRF phospho-AKT(S473), T47D (PI3Kα-H1047R) cells, 2 hours compound incubation.
Where [5] appears, read: Homo sapiens, SK-BR-3; SKBR3 (PI3Kα-Wild Type) cells, HTRF phospho-AKT(S473), 2 hours compound incubation, PDGF-BB stimulated.
[6] abbreviates: Homo sapiens; T47D (PI3Kα-H1047R) cells, HTRF phospho-AKT(S473), 2 hours compound incubation.

Bounds are passed on as bounds.

For orientation: IC50 means the concentration needed to halve the response being measured. Read a low IC50 as greater potency.

As for `[2H]C([2H])([2H])n1ncc(F)c1C1CCN(c2nc3c([C@@H](C)Nc4ccc(Cl)nc4C(=O)NS(C)(=O)=O)cc(C)cc3c(=O)n2C)CC1` [Compound 457, (R)-6-chloro-3-((1-(2-(4-(4-fluoro-1-(methyl-d3)-1H-pyrazol-5-yl)piperidin-1-yl)-3,6-dimethyl-4-oxo-3,4-dihydroquinazolin-8-yl)ethyl)amino)-N-(methylsulfonyl) picolinamide], the IC50 is no less than 5000 nM in test [1] (setting [3]) and 500 to 1000 nM in test [2] (setting [4]).

Regarding `Cc1cc([C@@H](C)Nc2ccc(Cl)nc2C(=O)NS(C)(=O)=O)c2nc(N3C[C@H]4C[C@@H](C3)C4c3n[nH]cc3F)n(C)c(=O)c2c1` (mixture of isomers) [Compound 650, 6-chloro-3-(((1R)-1-(2-((1R,5S)-6-(4-fluoro-1H-pyrazol-3-yl)-3-azabicyclo[3.1.1]heptan-3-yl)-3,6-dimethyl-4-oxo-3,4-dihydroquinazolin-8-yl)ethyl)amino)-N-(methylsulfonyl) picolinamide], the IC50 in test [1] (setting [3]) was no less than 5000 nM; in test [2] (setting [4]) it was 250 to 500 nM.

On to `Cc1cc([C@@H](C)Nc2ccc(Cl)nc2C(=O)NS(C)(=O)=O)c2nc(N3CC[C@H](c4ccnc(C)c4)C3)n(C)c(=O)c2c1` (relative stereo) [Compound 769, 6-chloro-3-(((R)-1-(3,6-dimethyl-2-((R*)-3-(2-methylpyridin-4-yl)pyrrolidin-1-yl)-4-oxo-3,4-dihydroquinazolin-8-yl)ethyl)amino)-N-(methylsulfonyl) picolinamide], for which the concentration for half-maximal inhibition (IC50) in test [1] (setting [3]) is 1000 to 5000 nM; in test [2] (setting [4]) it was less than 250 nM.

Consider `Cc1cc([C@@H](C)Nc2ccc(Cl)nc2C(=O)NS(C)(=O)=O)c2nc(N3C[C@@H]4[C@H](C3)[C@H]4c3cc[nH]n3)n(C)c(=O)c2c1` [Compound 699, 3-(((R)-1-(2-((1R,5S,6R)-6-(1H-pyrazol-3-yl)-3-azabicyclo[3.1.0]hexan-3-yl)-3,6-dimethyl-4-oxo-3,4-dihydroquinazolin-8-yl)ethyl)amino)-6-chloro-N-(methylsulfonyl) picolinamide], for which the concentration for half-maximal inhibition (IC50) in test [1] (setting [3]) was in the range of 1000 to 5000 nM; in test [2] (setting [4]), 250 to 500 nM.

Take `Cc1cc([C@@H](C)Nc2ccc(Cl)nc2C(=O)NS(C)(=O)=O)c2nc(N3CCC(C)(c4nn(C)cc4F)CC3)n(C)c(=O)c2c1` [Compound 406, (R)-6-chloro-3-((1-(2-(4-(4-fluoro-1-methyl-1H-pyrazol-3-yl)-4-methylpiperidin-1-yl)-3,6-dimethyl-4-oxo-3,4-dihydroquinazolin-8-yl)ethyl)amino)-N-(methylsulfonyl) picolinamide]: the half-maximal inhibitory concentration (IC50) was no less than 5000 nM in test [1] (setting [5]) and 250 to 500 nM in test [2] (setting [6]).

In the case of `Cc1cc([C@@H](C)Nc2ccc(Cl)nc2C(=O)NS(C)(=O)=O)c2nc(N3CCN(c4cnc(C)cn4)CC3)n(C)c(=O)c2c1` [Compound 369, (R)-6-chloro-3-((1-(3,6-dimethyl-2-(4-(5-methylpyrazin-2-yl)piperazin-1-yl)-4-oxo-3,4-dihydroquinazolin-8-yl)ethyl)amino)-N-(methylsulfonyl) picolinamide], the half-inhibitory concentration (IC50) was 1000 to 5000 nM in test [1] (setting [5]) and less than 250 nM in test [2] (setting [6]).

On to `Cc1cc([C@@H](C)Nc2ccc(Cl)nc2C(=O)NS(C)(=O)=O)c2nc(N3Cc4cn(-c5ccc(C#N)cc5C)nc4C3)n(C)c(=O)c2c1` [Compound 250, (R)-6-chloro-3-((1-(2-(2-(4-cyano-2-methylphenyl)-2,6-dihydropyrrolo[3,4-c]pyrazol-5(4H)-yl)-3,6-dimethyl-4-oxo-3,4-dihydroquinazolin-8-yl)ethyl)amino)-N-(methylsulfonyl) picolinamide], for which the results for the IC50 in test [1] (setting [5]) and in test [2] (setting [6]) were 1000 to 5000 nM and less than 250 nM, respectively.

For the molecule `Cc1cc([C@@H](C)Nc2ccc(Cl)nc2C(=O)NS(C)(=O)=O)c2nc(N3CCC(n4nc(C#N)c5ccccc54)CC3)n(C)c(=O)c2c1` [Compound 304, (R)-6-chloro-3-((1-(2-(4-(3-cyano-1H-indazol-1-yl)piperidin-1-yl)-3,6-dimethyl-4-oxo-3,4-dihydroquinazolin-8-yl)ethyl)amino)-N-(methylsulfonyl) picolinamide], the figures for the concentration for half-maximal inhibition (IC50) in test [1] (setting [5]) and in test [2] (setting [6]) were no less than 5000 nM and 250 to 500 nM, respectively.

In the case of `Cc1cc([C@@H](C)Nc2ccc(Cl)nc2C(=O)NS(C)(=O)=O)c2nc(N3CC[C@@H](c4ccnc(C)n4)C3)n(C)c(=O)c2c1` (relative stereo) [Compound 600, 6-chloro-3-(((R)-1-(3,6-dimethyl-2-((R*)-3-(2-methylpyrimidin-4-yl)pyrrolidin-1-yl)-4-oxo-3,4-dihydroquinazolin-8-yl)ethyl)amino)-N-(methylsulfonyl) picolinamide], the half-maximal inhibitory concentration (IC50) in test [1] (setting [3]) was 1000 to 5000 nM; in test [2] (setting [4]), 250 to 500 nM.

On to `Cc1cc([C@@H](C)Nc2ccc(Cl)nc2C(=O)NS(C)(=O)=O)c2nc(N3C[C@@H]4[C@H](C3)[C@H]4c3ccc(C)nc3)n(C)c(=O)c2c1` [Compound 449, 6-chloro-3-(((R)-1-(3,6-dimethyl-2-((1R,5S,6S)-6-(6-methylpyridin-3-yl)-3-azabicyclo[3.1.0]hexan-3-yl)-4-oxo-3,4-dihydroquinazolin-8-yl)ethyl)amino)-N-(methylsulfonyl) picolinamide], for which the results for the half-inhibitory concentration (IC50) in test [1] (setting [3]) and in test [2] (setting [4]) were no less than 5000 nM and 250 to 500 nM, respectively.

On to `CC(=O)N1CC2CCC(C1)N2c1ccc(-c2nc3c([C@@H](C)Nc4ccc(Cl)nc4C(=O)NS(C)(=O)=O)cc(C)cc3c(=O)n2C)cc1F` [Compound 801, 3-(((1R)-1-(2-(4-(3-acetyl-3,8-diazabicyclo[3.2.1]octan-8-yl)-3-fluorophenyl)-3,6-dimethyl-4-oxo-3,4-dihydroquinazolin-8-yl)ethyl)amino)-6-chloro-N-(methylsulfonyl) picolinamide], for which the IC50 in test [1] (setting [3]) is no less than 5000 nM; in test [2] (setting [4]) it was less than 250 nM.

`Cc1cc([C@@H](C)Nc2ccc(Cl)nc2C(=O)NS(C)(=O)=O)c2nc(N3CCC(c4ccn(C)n4)CC3)n(C)c(=O)c2c1` [Compound 178, (R)-6-chloro-3-((1-(3,6-dimethyl-2-(4-(1-methyl-1H-pyrazol-3-yl)piperidin-1-yl)-4-oxo-3,4-dihydroquinazolin-8-yl)ethyl)amino)-N-(methylsulfonyl) picolinamide]: the IC50 in test [1] (setting [5]) is 1000 to 5000 nM; in test [2] (setting [6]) it was less than 250 nM.

Turning to `Cc1cc([C@@H](C)Nc2ccc(Cl)nc2C(=O)NS(C)(=O)=O)c2nc(N3C[C@@H]4C[C@H]3CN4c3cnc(C)c(F)c3)n(C)c(=O)c2c1` [Compound 608, 6-chloro-3-(((R)-1-(2-((1S,4S)-5-(5-fluoro-6-methylpyridin-3-yl)-2,5-diazabicyclo [2.2.1]heptan-2-yl)-3,6-dimethyl-4-oxo-3,4-dihydroquinazolin-8-yl)ethyl)amino)-N-(methylsulfonyl) picolinamide], the half-inhibitory concentration (IC50) is no less than 5000 nM in test [1] (setting [3]) and 500 to 1000 nM in test [2] (setting [4]).

`Cc1cc([C@@H](C)Nc2ccc(Cl)nc2C(=O)NS(C)(=O)=O)c2nc([C@H]3[C@@H]4CN(c5cnc(C)c(F)c5)C[C@@H]43)n(C)c(=O)c2c1` [Compound 828, 6-chloro-3-(((R)-1-(2-((1R,5S,6r)-3-(5-fluoro-6-methylpyridin-3-yl)-3-azabicyclo[3.1.0]hexan-6-yl)-3,6-dimethyl-4-oxo-3,4-dihydroquinazolin-8-yl)ethyl)amino)-N-(methylsulfonyl) picolinamide]: the IC50 in test [1] (setting [3]) was no less than 5000 nM; in test [2] (setting [4]) it was 500 to 1000 nM.

With `Cc1cc([C@@H](C)Nc2ccc(Cl)nc2C(=O)NS(C)(=O)=O)c2nc(-c3ccc4c(cnn4C)c3)n(C)c(=O)c2c1` [Compound 774, (R)-6-chloro-3-((1-(3,6-dimethyl-2-(1-methyl-1H-indazol-5-yl)-4-oxo-3,4-dihydroquinazolin-8-yl)ethyl)amino)-N-(methylsulfonyl) picolinamide], the 50% inhibitory concentration (IC50) in test [1] (setting [3]) was 500 to 1000 nM; in test [2] (setting [4]), less than 250 nM.

Take `Cc1cc([C@@H](C)Nc2ccc(Cl)nc2C(=O)NS(C)(=O)=O)c2nc(N3C[C@@H]4[C@H](C3)[C@H]4n3cc(C)cn3)n(C)c(=O)c2c1` [Compound 491, 6-chloro-3-(((R)-1-(3,6-dimethyl-2-((1R,5S,6S)-6-(4-methyl-1H-pyrazol-1-yl)-3-azabicyclo[3.1.0]hexan-3-yl)-4-oxo-3,4-dihydroquinazolin-8-yl)ethyl)amino)-N-(methylsulfonyl) picolinamide]: the IC50 was 1000 to 5000 nM in test [1] (setting [3]) and 250 to 500 nM in test [2] (setting [4]).

In the case of `COc1cnc(C2CCN(c3nc4c([C@@H](C)Nc5ccc(Cl)nc5C(=O)NS(C)(=O)=O)cc(C)cc4c(=O)n3C)CC2)nc1` [Compound 487, (R)-6-chloro-3-((1-(2-(4-(5-methoxypyrimidin-2-yl)piperidin-1-yl)-3,6-dimethyl-4-oxo-3,4-dihydroquinazolin-8-yl)ethyl)amino)-N-(methylsulfonyl) picolinamide], the IC50 in test [1] (setting [3]) fell in the range of 1000 to 5000 nM; in test [2] (setting [4]), 250 to 500 nM.

`Cc1cc([C@@H](C)Nc2ccc(Cl)nc2C(=O)NS(C)(=O)=O)c2nc(N3[C@@H]4CC[C@H]3C[C@H](c3cnc(C)nc3)C4)n(C)c(=O)c2c1` [Compound 300, 6-chloro-3-(((R)-1-(3,6-dimethyl-2-((1R,3S,5S)-3-(2-methylpyrimidin-5-yl)-8-azabicyclo[3.2.1]octan-8-yl)-4-oxo-3,4-dihydroquinazolin-8-yl)ethyl)amino)-N-(methylsulfonyl) picolinamide]: the 50% inhibitory concentration (IC50) in test [1] (setting [5]) was no less than 5000 nM; in test [2] (setting [6]) it was less than 250 nM.

Values taken from patent US12281122B1, “PI3K inhibitors” (Cogent Biosciences, Inc., priority 2023, dated 2025).
